Assay results taken from patent publication US12642809B2, “Fucosylation and immune modulation in cancer” (H. LEE MOFFITT CANCER CENTER AND RESEARCH INSTITUTE, INC., priority 2019, dated 2026).
“Also recorded” adds a separate entry of the source.

Legend:
[1] = tested on: MDSCs; test: IFNγ of T cells co-cultured with pre-treated MDSCs; format: cell-based, BalbC mice; settings: CD3/CD28 bead activation
Source text: Shown are IFNγ production/secretion levels of combined bulk CD4^+ and CD8^+ T cells from BalbC mice treated with either DMSO (black column) or L-fucose (red column) or co-cultured with MDSCs pre-treated with DMSO (aquamarine column) or with L-fucose (purple column). The T cells were activated using CD3/CD28 beads.

[2] = tested on: SM1 tumors; test: Anti-PD1 ± L-fucose, SM1 (BRAF-mutant) model in C57BL/6 mice; format: in vivo, mouse
Source text: (§1) Fucosylation of HLA-DRB1 occurs on amino acid N48 (mutation to G abolishes interaction with fucose-binding AAL, lectin) (FIG. 9A). […] To further investigate the efficacy of the combination therapy of L-fucose and anti-PD1 and to see if the combination of L-fucose and anti-PD1 improved the efficacy of either agent alone, two mouse melanoma mouse models were used. The first was the NRAS-mutant melanoma mouse model. Here, C3H mice were pretreated with anti-PD1 and/or L-fucose or a L-fucose pre-dose followed by anti-PD1 antibody (FIG. 11). […] Using a BRAF-mutant melanoma model, the efficacy of the combination therapy was more pronounced. Here C57BL6 mice were challenged with SMI cells (FIG. 11). 7 days post challenge, mice received either a control, anti-PD1, L-fucose, or L-fucose and anti-PD1.
(§2) SW1 or SM1 mouse melanoma cells were injected into syngeneic C3H/HeN female or C57BL/6 male mice, respectively. After approximately 7 days, when the mice tumors reached ˜150 mm^3, the mice were either supplemented with or without 100 mM L-fucose (Biosynth (Oak Terrace, IL)) via drinking water, which was provided ad libitum. Simultaneously, the mice were injected either with PBS (control) or anti-PD1 (20 mg/kg, clone RMP1-14, Bioxcell (West Lebanon, NH)) every 3-4 days until endpoint. When the tumors reached ˜2 cm^3, the animals were sacrificed.

[3] = tested on: SW1 tumors; test: Anti-PD1 ± L-fucose, SW1 (NRAS-mutant) model in C3H mice; format: in vivo, mouse
Source text: as §1, §2

[4] = tested on: cell surface fucosylation; test: Flow cytometry of cell surface fucosylation (AAL lectin) in melanoma cells; format: cell-based, human; settings: 250 μM, 72 h, panel of melanoma cell lines
Method: Indicated cells were treated for 72 h with DMSO, 250 μM fucosyltransferase inhibitor (FUTi) (Millipore Sigma (St. Louis, MO)), or 250 μM of L-fucose (Biosynth (Oak Terrace, IL)). After 72 h, cells were stained with 0.1 μM PKH26 (Millipore Sigma (St. Louis, MO)) prior to fixation in 4% formaldehyde solution. The cells were stained with anti-HLA-DRB1 (rabbit anti-human HLA-DRB1 (0.2 μg/mL, ab92371, Abcam (Cambridge, UK)) and fluorescein AAL (0.2 μg/ml. Vector Labs (Burlingame, CA)), or anti-human or anti-mouse PD-L1 (Novus Biologicals (Centennial, CO) or Biolegend (San Diego, CA), respectively) overnight. The following day the cells were washed 3 times prior to adding AlexaFluor 594 donkey anti-rabbit (0.8 μg/mL, ThermoFisher Scientific (Waltham, MA)). Cells were washed 3 times and then subject to flow cytometric analyses using a FACSCalibur™ (BD Biosciences (San Jose, CA)). Samples were analyzed using FlowJo™ analysis software (BD Biosciences (San Jose, CA)). Median values of DRB1 and AAL were normalized to PKH26 values and statistical analysis was performed using GraphPad Prism™.

[5] = tested on: 1205Lu melanoma cells; test: LDH-release NK cell killing of pre-treated 1205Lu melanoma cells; format: cell-based; settings: 250 μM pre-treatment, 8 h co-culture, immortalized and primary human NK cells
Method: The possibility that tumor fucosylation can directly activate the tumor cell-killing activity of NK cells was explored. To assay for this possibility, a lactate dehydrogenase (LDH)-release-based assay was used in which the fucosylation of LU1205 melanoma cells was modulated prior to co-culture with NK cells. Specifically, primary NK cells isolates (5A) or immortalized NK92 cell line (5B) were co-cultured with 1205Lu melanoma cells that were pre-treated with DMSO, 250 μM pan-fucosyltransferase inhibitor (FUTi), or 250 μM L-fucose for 8 hours. Non-radioactive LDH-release cytotoxicity assay was performed to measure extent of NK cell-mediated killing. […] Immunoblot analysis using AAL lectin (another fucose-binding lectin) was performed to confirm the effects of FUTi (5C) or L-fucose (5D) on 1205Lu cells (96 h treatment). (•: […]) (*: […]).

C[C@H](O)[C@@H](O)[C@@H](O)[C@H](O)C=O [L-fucose]
MDSC-mediated suppression of T cell IFNγ production/secretion [1]: completely reverts MDSC-mediated T cell suppression | tumor growth suppressed ([2]; for 21 days): > 50% | tumor suppression compared with anti-PD1 ([2]; single agents): less effective than anti-PD1 | suppressed tumor growth ([3]; 100 mM L-fuc alone): 50-60% | control of tumor ([3]; NRAS-mutant model, FIG. 11, single agents): effectively control the tumor | tumor suppression compared with anti-PD1 ([3]; single agents): as much as anti-PD1; also recorded: as well as anti-PD1 | cell surface fucosylation relative to DMSO [4]: increased | NK cell-mediated tumor-cell killing [5]: sufficient to induce the tumor-cell killing activity
